In patent US9096596B2 (Janssen Pharmaceutica NV, priority 2013, dated 2015) one finds Ki, IC50 and remaining activity data, which are given here for 19 compounds.

Read-outs that look alike come from different tables or passages of the source. A value given as a limit tells only on which side of the number the result lay.

For orientation: Ki means the dissociation constant of the complex between target and ligand, obtained from inhibition or displacement. Broadly, the IC50 is the point on the concentration scale where inhibition reaches its midpoint.

The target in assay [1] is T1, P2X7 (Homo sapiens (Human), UniProt Q99572). Nature of the assay: Radioligand binding, human P2X7-1321N1 cell membranes, tracer tritiated A-804598. How it is done:
On the day of the experiment, cell membrane preparations were made according to standard published methods. […] The compound can be prepared as described in the literature. […] The assay was terminated by filtration (GF/B filters pre-soaked with 0.3% PEI) and washed with washing buffer (Tris-HCl 50 mM). The IC50 generated in the binding assay was corrected for tracer concentration and affinity of the tracer to derive at the affinity (Ki) of the test compounds.

Assay [2] addresses T1, P2X7. Nature of the assay: Ca2+ flux (FLIPR) in 1321N1 cells expressing recombinant human P2X7 channel. It counts as cell-based. The note with it: 250 μM BzATP, Calcium-4 dye. How it is done: (§1) 1321N1 cells expressing the recombinant human, rat or mouse P2X7 channel was cultured in HyQ DME/(HyClone/Dulbecco's Modified Eagle Medium) high glucose supplemented with 10% Fetal Bovine Serum (FBS) and appropriate selection marker. Cells were seeded at a density of 25000 cells/well (96-well clear bottom black walled plates) in 100 μl volume/well. On the day of the experiment, cell plates were washed with assay buffer, containing (in mM): 130 NaCl, 2 KCl, 1 CaCl2, 1 MgCl2, 10 HEPES, 5 glucose; pH 7.40 and 300 mOs. After the wash, cells were loaded with the Calcium-4 dye (Molecular Device) and incubated in the dark for 60 minutes. Test compounds were prepared at 250× the test concentration in neat DMSO. Intermediate 96-well compound plates were prepared by transferring 1.2 μL of the compound into 300 μL of assay buffer. A further 3× dilution occurred when transferring 50 μL/well of the compound plate to 100 μL/well in the cell plate. Cells were incubated with test compounds and dye for 30 minutes. […] The fluorescence change was measured 180 seconds after adding the agonist.

Assay [3] addresses T1, P2X7. In words: P2X7 antagonism in human PBMCs (IL-1β release, ELISA). It counts as cell-based. The note with it: test compound 10 μM, IL-1β release in human PBMCs, LPS 30 ng/ml + Bz-ATP 0.5 mM, read-out: PBMC 10 μM (% control). How it is done:
Human blood was collected using a blood donor program. […] Cells were incubated for an additional 1.5 hours. […] In Table 2, when the data cell has been left blank, it is intended to mean that the compound was not tested in that assay.

In a further assay the target is rat P2X7 (Rattus norvegicus (Rat), UniProt Q64663). In words: Ca2+ flux (FLIPR) in 1321N1 cells expressing recombinant rat P2X7 channel. It counts as cell-based. The conditions noted are these: 250 μM BzATP, Calcium-4 dye. As for the experimental part: as §1
Sequence of rat P2X7 (Q64663 whole entry): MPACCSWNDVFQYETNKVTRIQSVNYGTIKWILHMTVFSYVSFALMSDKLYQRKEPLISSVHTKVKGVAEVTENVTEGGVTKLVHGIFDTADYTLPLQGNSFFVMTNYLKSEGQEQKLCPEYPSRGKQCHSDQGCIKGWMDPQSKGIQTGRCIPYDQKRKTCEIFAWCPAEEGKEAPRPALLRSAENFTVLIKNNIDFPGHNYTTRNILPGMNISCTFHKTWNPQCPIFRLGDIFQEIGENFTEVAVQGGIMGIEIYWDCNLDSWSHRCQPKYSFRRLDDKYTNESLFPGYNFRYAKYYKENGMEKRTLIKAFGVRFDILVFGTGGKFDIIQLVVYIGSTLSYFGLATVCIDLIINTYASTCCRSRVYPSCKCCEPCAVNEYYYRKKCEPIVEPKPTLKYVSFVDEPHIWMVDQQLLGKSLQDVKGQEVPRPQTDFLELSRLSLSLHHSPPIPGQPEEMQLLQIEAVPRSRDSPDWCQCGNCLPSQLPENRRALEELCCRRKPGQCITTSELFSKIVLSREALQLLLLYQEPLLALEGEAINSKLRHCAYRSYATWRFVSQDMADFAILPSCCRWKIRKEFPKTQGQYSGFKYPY
(A change in cytosolic calcium serves as a functional read-out for many receptors and channels.)

[4] abbreviates: human P2X7-1321N1 membranes, 1 hour at 4° C., IC50 corrected for tracer concentration and affinity.

T1 sequence (Q99572 whole entry): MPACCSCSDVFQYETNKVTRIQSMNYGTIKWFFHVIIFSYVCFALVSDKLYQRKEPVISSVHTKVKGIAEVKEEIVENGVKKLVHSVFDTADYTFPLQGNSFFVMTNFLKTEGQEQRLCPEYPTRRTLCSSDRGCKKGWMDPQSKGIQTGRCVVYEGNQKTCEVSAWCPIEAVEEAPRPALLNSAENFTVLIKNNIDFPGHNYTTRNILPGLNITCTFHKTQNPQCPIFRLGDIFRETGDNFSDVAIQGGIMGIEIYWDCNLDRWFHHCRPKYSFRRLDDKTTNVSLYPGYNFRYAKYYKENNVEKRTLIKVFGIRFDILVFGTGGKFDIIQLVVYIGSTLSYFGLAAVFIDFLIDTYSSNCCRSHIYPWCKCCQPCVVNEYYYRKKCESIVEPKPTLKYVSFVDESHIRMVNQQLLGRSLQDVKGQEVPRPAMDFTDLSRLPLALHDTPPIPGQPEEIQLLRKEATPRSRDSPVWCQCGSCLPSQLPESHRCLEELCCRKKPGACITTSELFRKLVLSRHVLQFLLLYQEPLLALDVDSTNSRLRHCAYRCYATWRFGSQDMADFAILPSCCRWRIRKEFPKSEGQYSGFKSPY

Consider `Cc1nc2c(c(-c3ccn[nH]3)n1)C[C@@H](C)N(C(=O)c1cccc(C(F)(F)F)c1C)C2` (single isomer, unassigned) [Example 78, (R*)-(2,6-dimethyl-4-(1H-pyrazol-5-yl)-5,6-dihydropyrido[3,4-d]pyrimidin-7(8H)-yl)(2-methyl-3-(trifluoromethyl)phenyl)methanone], for which the Ki on P2X7 [1] is 7.9 nM. The IC50 at P2X7 [2] stood at 13.6 nM.

In the case of `Cc1nc2c(c(-c3ccn[nH]3)n1)CC(C)N(C(=O)c1ccc(C#N)cc1C)C2` (centres unmarked) [Example 3, 4-(2,6-dimethyl-4-(1H-pyrazol-5-yl)-5,6,7,8-tetrahydropyrido[3,4-d]pyrimidine-7-carbonyl)-3-methylbenzonitrile], the remaining activity at 10 µM on P2X7 [3] amounted to 2.5%. In addition, the IC50 on P2X7 [2] was determined as 798 nM; at rat P2X7, 4250 nM.

Turning to `Cc1nc2c(c(-c3ccccc3)n1)CCN(C(=O)c1cccc(Cl)c1Cl)C2` [Example 27, 7-[(2,3-Dichlorophenyl)carbonyl]-2-methyl-4-phenyl-5,6,7,8-tetrahydropyrido[3,4-d]pyrimidine], the Ki on P2X7 [1] (setting [4]) is 427 nM. The IC50 turned out to be 117 nM at P2X7 [2] and 4550 nM on rat P2X7.

With `Cc1nc2c(c(-c3ccn[nH]3)n1)CC(C)N(C(=O)c1cccc(C)c1F)C2` (centres unmarked) [Example 135, (2,6-dimethyl-4-(1H-pyrazol-5-yl)-5,6-dihydropyrido[3,4-d]pyrimidin-7(8H)-yl)(2-fluoro-3-methylphenyl)methanone], the remaining activity at 10 µM on P2X7 [3] was -1%. Also, the IC50 is 492 nM at P2X7 [2] and 1870 nM on rat P2X7.

For `Cc1nc2c(c(-c3ccn[nH]3)n1)CC(C)N(C(=O)c1cccc(C)c1C)C2` (centres unmarked) [Example 132, (2,6-dimethyl-4-(1H-pyrazol-5-yl)-5,6-dihydropyrido[3,4-d]pyrimidin-7(8H)-yl)(2,3-dimethylphenyl)methanone], the remaining activity at 10 µM on P2X7 [3] was -0.1%. In addition, the IC50 on P2X7 [2] is 532 nM; on rat P2X7 it was 7160 nM.

For the compound `O=C(c1cccc(Cl)c1Cl)N1CCc2c(ncnc2-c2nccs2)C1` [Example 38, 7-[(2,3-Dichlorophenyl)carbonyl]-4-(1,3-thiazol-2-yl)-5,6,7,8-tetrahydropyrido[3,4-d]pyrimidine], the affinity at P2X7 [1] (setting [4]), expressed as Ki, was 77.6 nM. Moreover, at P2X7 [2], the IC50 is 63.4 nM.

For `Cc1nc2c(c(-c3ccn[nH]3)n1)CC(C)N(C(=O)c1cccc(F)c1C)C2` (centres unmarked) [Example 134, (2,6-dimethyl-4-(1H-pyrazol-5-yl)-5,6-dihydropyrido[3,4-d]pyrimidin-7(8H)-yl)(3-fluoro-2-methylphenyl)methanone], at P2X7 [3], the remaining activity at 10 µM stood at 0.4%. Also, the IC50 was found to be 331 nM at P2X7 [2] and 1270 nM on rat P2X7.

Regarding `O=C(c1ccc(F)c(Cl)c1Cl)N1CCc2c(ncnc2-c2cccc(F)n2)C1` [Example 129, (2,3-dichloro-4-fluorophenyl)(4-(6-fluoropyridin-2-yl)-5,6-dihydropyrido[3,4-d]pyrimidin-7(8H)-yl)methanone], the remaining activity at 10 µM on P2X7 [3] is 2.5%. Further, affinity on P2X7 [1] (setting [4]) was put at a Ki of 39.8 nM.

For `Cc1nc2c(c(-c3ccn[nH]3)n1)CCN(C(=O)c1ccc(Cl)c(F)c1Cl)C2` [Example 53, 7-[(2,4-Dichloro-3-fluorophenyl)carbonyl]-2-methyl-4-(1H-pyrazol-5-yl)-5,6,7,8-tetrahydropyrido[3,4-d]pyrimidine], on P2X7 [1] (setting [4]), affinity was put at a Ki of 63.1 nM. In addition, the IC50 stood at 83.4 nM on P2X7 [2] and 1890 nM at rat P2X7.

Take `Cc1nc2c(c(-c3ccn[nH]3)n1)CC(C)N(C(=O)c1ccc(F)cc1C)C2` (centres unmarked) [Example 133, (2,6-dimethyl-4-(1H-pyrazol-5-yl)-5,6-dihydropyrido[3,4-d]pyrimidin-7(8H)-yl)(4-fluoro-2-methylphenyl)methanone]: at P2X7 [3], the remaining activity at 10 µM worked out at 0.1%. Moreover, at P2X7 [2], the IC50 came out at 918 nM.

`O=C(c1cc(F)c(F)cc1Cl)N1CCc2c(ncnc2-c2cnccn2)C1` [Example 16, 7-[(2-Chloro-4,5-difluorophenyl)carbonyl]-4-pyrazin-2-yl-5,6,7,8-tetrahydropyrido[3,4-d]pyrimidine]: the remaining activity at 10 µM at P2X7 [3] came out at 20.4%. Further, the IC50 on P2X7 [2] is 13200 nM; at rat P2X7, more than 10000 nM.

Turning to `O=C(c1cccc(C(F)(F)F)c1Cl)N1CCc2c(ncnc2-n2cncn2)C1` [Example 110, (4-(1H-1,2,4-triazol-1-yl)-5,6-dihydropyrido[3,4-d]pyrimidin-7(8H)-yl)(2-chloro-3-(trifluoromethyl)phenyl)methanone], the remaining activity at 10 µM on P2X7 [3] came to 20.1%. Further, the IC50 on P2X7 [2] and at rat P2X7 was more than 10000 nM throughout.

As for `Cc1nc2c(c(-n3ccnn3)n1)CCN(C(=O)c1cccc(C(F)(F)F)c1Cl)C2` [Example 48, 7-{[2-Chloro-3-(trifluoromethyl)phenyl]carbonyl}-2-methyl-4-(1H-1,2,3-triazol-1-yl)-5,6,7,8-tetrahydropyrido[3,4-d]pyrimidine], at P2X7 [1] (setting [4]), the affinity, expressed as Ki, was 2000 nM. Also, the IC50 on P2X7 [2] amounted to 5010 nM; on rat P2X7 it was 10000 nM.

As to `Cc1ccc(C(=O)N2Cc3nc(C)nc(-c4ccn[nH]4)c3CC2C)c(C)c1` (centres unmarked) [Example 131, (2,6-dimethyl-4-(1H-pyrazol-5-yl)-5,6-dihydropyrido[3,4-d]pyrimidin-7(8H)-yl)(2,4-dimethylphenyl)methanone], the remaining activity at 10 µM on P2X7 [3] was found to be 7.3%. Further, the figures for the IC50 at P2X7 [2] and on rat P2X7 were 11400 nM and more than 10000 nM, respectively.

Turning to `O=C(c1cccc(C(F)(F)F)c1Cl)N1CCc2c(ncnc2-c2nccs2)C1` [Example 37, 7-{[2-Chloro-3-(trifluoromethyl)phenyl]carbonyl}-4-(1,3-thiazol-2-yl)-5,6,7,8-tetrahydropyrido[3,4-d]pyrimidine], affinity at P2X7 [1] (setting [4]) was put at a Ki of 50.1 nM. In addition, the IC50 on P2X7 [2] is 12.1 nM.

On P2X7 [1] (setting [4]), `O=C(c1cccc(C(F)(F)F)c1Cl)N1CCc2c(ncnc2-c2ccccc2)C1` [Example 1, 7-{[2-Chloro-3-(trifluoromethyl)phenyl]carbonyl}-4-phenyl-5,6,7,8-tetrahydropyrido[3,4-d]pyrimidine] had a Ki of 224 nM. Besides, the IC50 at P2X7 [2] was 29.9 nM; at rat P2X7, 1270 nM.

On P2X7 [1] (setting [4]), `O=C(c1cccc(C(F)(F)F)c1Cl)N1CCc2c(ncnc2-c2ccc[nH]2)C1` [Example 42, 7-{[2-Chloro-3-(trifluoromethyl)phenyl]carbonyl}-4-(1H-pyrrol-2-yl)-5,6,7,8-tetrahydropyrido[3,4-d]pyrimidine] returned a Ki of 79.4 nM. The IC50 on P2X7 [2] came to 20 nM.

Take `Cc1nc2c(c(-c3ccn[nH]3)n1)CC(C)N(C(=O)c1cccc(C#N)c1C)C2` (centres unmarked) [Example 61, 3-(2,6-dimethyl-4-(1H-pyrazol-5-yl)-5,6,7,8-tetrahydropyrido[3,4-d]pyrimidine-7-carbonyl)-2-methylbenzonitrile]: the remaining activity at 10 µM on P2X7 [3] was -1.2%. In addition, the IC50 at P2X7 [2] worked out at 448 nM; on rat P2X7, 3110 nM.

Consider `Cc1nc2c(c(-c3ccn[nH]3)n1)C[C@H](C)N(C(=O)c1ccc(Cl)cc1F)C2` (single isomer, unassigned) [Example 89, (S*)-(4-chloro-2-fluorophenyl)(2,6-dimethyl-4-(1H-pyrazol-5-yl)-5,6-dihydropyrido[3,4-d]pyrimidin-7(8H)-yl)methanone], for which the affinity on P2X7 [1] corresponds to a Ki of 11.5 nM. Also, the IC50 on P2X7 [2] came to 17.2 nM.
